Data on 2 compounds can be found in patent publication US20220000971A1, “METHODS AND COMPOUNDS FOR TARGETING SORTILIN RECEPTORS AND INHIBITING VASCULOGENIC MIMICRY” (TRANSFERT PLUS, S.E.C., priority 2018, published 2022).

Broadly, the AUC is concentration integrated over time. Broadly, the Cmax is the maximum level reached in the sampled fluid or tissue. For orientation: Vd means the apparent volume that relates the amount in the body to the concentration in plasma or blood. As usually defined, the clearance is the rate of elimination divided by the concentration. A lower clearance goes with inefficient removal. As usually defined, the IC50 is the concentration at which inhibition is half-maximal.

Molecules are shown by their SMILES. Values joined by “and” are separate entries in the source; they are usually repeats but may differ in a detail not shown here. Equal entries are not always repeated. “Also recorded” adds a separate entry of the source. Where two headings read alike, the source gives them in different places. Where a SMILES comes first, the peptide text is derived from it. [ ]: non-standard residue; d: D form. The star is where a group is joined. X1 = CC(=O)O[C@@]12CO[C@@H]1C[C@H](O)[C@@]1(C)C(=O)[C@H](O)C3=C(C)[C@@H](OC(=O)[C@H](OC(=O)CCC(=O)*)[C@@H](NC(=O)OC(C)(C)C)c4ccccc4)C[C@@](O)([C@@H](OC(=O)c4ccccc4)[C@H]21)C3(C)C; Nle = CCCC[C@H](N)C(=O)O

Series [1] relates to MDA-MB-231 cells. Kind of series: MTT cell proliferation assay. Format: cell-based. The method, then:
(§1) MDA-MB-231 cells were used as a TNBC cell model for in vitro and in vivo xenograft (CD1 nude mice) assays. Cell migration was assessed using the ×CELLigence real-time system, whereas MTT assay was used for cell proliferation analysis. Apoptosis biomarkers expression was assessed by immunoblotting.

In a further series the test system is MDA-MB-231 TNBC cells. Description: In vitro vasculogenic mimicry, Matrigel tube formation assay (MDA-MB-231). Format: cell-based. The note with it: MDA-MB231; FIG. 43. The procedure: (§2) In vitro vasculogenic mimicry of cancer cells was assessed using a Matrigel tube formation assay. In brief, each well of a 96-well plate was pre-coated with Matrigel. ES-2 ovarian cancer or MDA-MB-231 TNBC cell suspensions were seeded on top of Matrigel. 3D-tubular structures were analyzed and quantified using Wimasis Analysis software. Real-time cell migration was evaluated using the ×CELLigence system. Sortilin gene silencing was performed with specific siRNA. Effects of Doxorubicin-KA-peptide conjugate (DoxKA) KBA-106 represented by formula Acetyl-GVRAK(doxorubicin)AGVRN(Nle)FK(doxorubicin)SESY (Formula (XXVIII)) and Docetaxel-KA-peptide conjugate (DoceKA) represented by formula Acetyl-GVRAK(docetaxel)AGVRN(Nle)FK(docetaxel)SESY (Formula (XXIII)) targeting Sortilin on vasculogenic mimicry and cell migration were determined.

A short description of series [2]: DoceKA pharmacokinetics in mice (plasma, UPLC/MS). Format: in vivo, CD-1 mice. The note with it: for half-life: iv, 50 mg/kg. The procedure: FIG. 29A illustrates the plasma concentration for DoceKA and released Docetaxel (BDL) at progressive time intervals. FIG. 29B illustrates the PK in CD-1 mice. […] Plasma was collected at different time points. DoceKA and released Docetaxel were extracted with acetonitrile. DoceKA and released Docetaxel, were quantified by UPLC/MS using Paclitaxel as the internal standard: 2 μl and 10 μl of supematants were injected for DoceKA and Docetaxel directly without lyophilization.
PK data on Docetaxel were obtained from refs. 50 and 51. PK analysis for DoceKA was carried out using PK solutions software. Docetaxel PK in mice is biphasic and linear between 13-62 mg/kg. […] Both have similar half-lives. DoceKA has a lower clearance (CL) and Volume of distribution (Vd). These preliminary data need to be confirmed with more data (shorter and longer time points).

In series [3] the test system is MDA-MB-231 cells. Kind of series: Real-time cell migration, xCELLigence (MDA-MB-231). Format: cell-based. The method, then: as §2, §1
Series [4] concerns MDA-MB-231 xenograft tumor. Kind of series: MDA-MB-231 xenograft tumor model. The class given is in vivo, CD1 nude mice. Conditions: murine MDA-MB-231 xenograft. The method, then: as §1
The next series deals with tubulin. Description: Tubulin / microtubule polymerization. Format: biochemical. The procedure: FIGS. 23A and 23B depict the DoceKA impact on tubulin polymerization. More particularly, FIG. 23A illustrates cells treated with vehicle (DMSO), 2 μM Docetaxel or 1 μM DoceKA for 24 hours, fixed and immunostained with anti-a-tubulin antibody and imaged using confocal microscopy. […] FIG. 23B illustrates that in a fluorescence-based polymerization assay, the effect of Docetaxel (2 μM) and DoceKA (1 μM) on polymerization of purified tubulin was examined in vitro. Paclitaxel (2 μM) and Vinblastine (2 μM) were added as controls for tubulin-polymerizing and tubulin-depolymerizing agents, respectively. Tubulin assembly into microtubules was determined by an increase in fluorescence emission (Ex. 340-360 nm±20 nm; Em. 410-460 nm±20 nm).

Series [5] deals with IL-6, Survivin, Bcl-xL and mutant p53. Description: Immunoblotting of pro-survival biomarkers. Format: cell-based. Conditions: MDA-MB-231.
From the text: FIGS. 22A and 22B illustrate the molecular mechanism of cell death induction by DoceKA in MDA-MB-231 cells. FIG. 22A illustrates the immunoblotting experiment showing the expression level of IL-6, Survivin, Bcl-xi and mutated p53 in MDA-MB-231 cell after treatment with Docetaxel and DoceKA. GAPDH was used as a control. FIG. 22B data are representative of three independent experiments and the bar graphs show the densitometric quantification of IL-6, Survivin, Bcl-xL and p53 expression as compared to GAPDH. The mean value of the control group was set to be 1.0.
as §1

The test system of series [6] is ES-2 ovarian cancer cells. Description: In vitro vasculogenic mimicry, Matrigel tube formation assay (ES-2). Format: cell-based, human.
Series [7] concerns ES-2 ovarian cancer cells. Kind of series: Real-time cell migration, xCELLigence (ES-2). Format: cell-based, human. The method, then:
as §2

Series [8] is described as follows: Blood cell / neutrophil counts after treatment. Format: in vivo, nude mice. An excerpt:
FIG. 27A illustrates the effect on lymphocytes after 3 treatments with different concentrations of Docetaxel or DoceKA. FIG. 27B illustrates the effect on platelets after 3 treatments with different concentrations of Docetaxel or DoceKA. FIG. 27C illustrates the effect on neutrophils after 3 treatments with different concentrations of Docetaxel or DoceKA. IP means intraperitoneal administration, while IV means intravenous delivery.
FIG. 28 depicts the preliminary toxicity data on DoceKA, specifically, the neutrophils count (g/L) after DoceKA treatments at different dosages of Docetaxel or DoceKA.

Series [9] has as its system MDA-MB-231 cells. Kind of series: Cell death / apoptosis (Annexin V-FITC/PI). The class given is cell-based.
Description: MDA-MB-231 cells treated for 5 hours with control (vehicle) or with increasing concentrations of Docetaxel or DoceKA. Cells were then harvested and the rate of apoptosis was determined following staining with Annexin V-FITC and propidium iodide (PI). Cells were analyzed by flow cytometry.
The test system of series [10] is MDA-MB-231 breast cancer cells. Kind of series: [3H]-Thymidine Incorporation assay. Format: cell-based. Conditions: Homo sapiens, GraphPad Prism. The method, then: FIG. 19 depicts the in vitro anticancer properties of DoceKA against MDA-MB-231 breast cancer cells as determined using the [3H]-Thymidine Incorporation assay. Incorporated [3H]-Thymidine was plotted for each drug concentration. IC50 values (nM) were calculated using the GraphPad Prism software. […] is a set of graphs depicting the cell-cycle distribution of MDA-MB231 cells determined based on cellular DNA content using flow cytometry after 24 hours of treatment with 2 μM Docetaxel or 1 μM DoceKA.
Background: Dividing cells build labelled thymidine or BrdU into new DNA.

For series [11] the following is noted: cited from earlier work.
The mark [12] stands for this setting: CD-1, mouse, plasma, DoceKA 50 mg/kg, intravenous, preliminary data.

Regarding `CCCC[C@H](NC(=O)[C@H](CC(N)=O)NC(=O)[C@H](CCCNC(=N)N)NC(=O)[C@@H](NC(=O)CNC(=O)[C@H](C)NC(=O)[C@H](CCCCNC(=O)CCC(=O)O[C@@H](C(=O)O[C@H]1C[C@@]2(O)[C@@H](OC(=O)c3ccccc3)[C@@H]3[C@]4(OC(C)=O)CO[C@@H]4C[C@H](O)[C@@]3(C)C(=O)[C@H](O)C(=C1C)C2(C)C)[C@@H](NC(=O)OC(C)(C)C)c1ccccc1)NC(=O)[C@H](C)NC(=O)[C@H](CCCNC(=N)N)NC(=O)[C@@H](NC(=O)CNC(C)=O)C(C)C)C(C)C)C(=O)N[C@@H](Cc1ccccc1)C(=O)N[C@@H](CCCCNC(=O)CCC(=O)O[C@@H](C(=O)O[C@H]1C[C@@]2(O)[C@@H](OC(=O)c3ccccc3)[C@@H]3[C@]4(OC(C)=O)CO[C@@H]4C[C@H](O)[C@@]3(C)C(=O)[C@H](O)C(=C1C)C2(C)C)[C@@H](NC(=O)OC(C)(C)C)c1ccccc1)C(=O)N[C@@H](CO)C(=O)N[C@@H](CCC(=O)O)C(=O)N[C@@H](CO)C(=O)N[C@@H](Cc1ccc(O)cc1)C(=O)O` [DoceKA, Acetyl-GVRAK(docetaxel)AGVRN(Nle)FK(docetaxel)SESY] (Ac-GVRAK(X1)AGVRN[Nle]FK(X1)SESY-OH), the cell proliferation result with MDA-MB-231 cells [1] was “potent anti-proliferative and anti-migratory activities”. Further, the “vasculogenic mimicry inhibition compared to Docetaxel alone” value in the series with MDA-MB-231 TNBC cells is “stronger inhibition of vasculogenic mimicry”. Moreover, the half-life in series [2] (CD-1, mouse, plasma, DoceKA 50 mg/kg, intravenous, preliminary data, read-out: t½ adsorption distribution) was in the range of 6 to 20 min. Also, the half-life in series [2] (CD-1, mouse, plasma, DoceKA 50 mg/kg, intravenous, preliminary data, read-out: t½ elimination) lay within 90 to 150 min. Moreover, in series [2] (setting [12]), the AUC is 614 µM·h and 2.3e+06 ng·h/mL; the Cmax is 1.6e+06 ng/mL and 437 µM; the Vd was 0.04 L/kg; the clearance is 0.3 mL/min/kg. In addition, the “plasma concentration of released Docetaxel” value in [2] (DoceKA 20 mg/kg intravenously, at 0.083, 0.25 and 4 hours) is listed as “below the limit of quantification”. In addition, the “AUC (tissue exposure) of DoceKA compared to Docetaxel” value in series [2] (higher for DoceKA) is “about 29 fold”. The “Cmax of DoceKA compared to Docetaxel” value in series [2] (higher, compared to Docetaxel (20 mg/kg)) is “about 18 fold”. For the same compound, in the series on MDA-MB-231 cells [3], the cell migration result was “inhibited; also recorded: potent anti-proliferative and anti-migratory activities”. The “tumor regression and survival compared to Docetaxel” value in series [4] is on record as “greater tumor regression capacity with a prolonged survival”. The microtubules polymerization entry with tubulin was “altered microtubules polymerization”. In series [5], the “expression of pro-survival biomarkers” value is “down-regulation of IL-6, Survivin, Bcl-xL and mutant p53”. For the same compound, the “concentration at which total number of loops and total tube length are inhibited” value in series [6] (ES-2 on Matrigel) is “low pM concentration; also recorded: very low pM concentration; also recorded: inhibited at low nM concentrations”. The “vasculogenic mimicry inhibition compared to unconjugated drug” value in series [6] (ES-2 on Matrigel, 12 hrs, equivalent concentration of free drug (Docetaxel 600 pM)) is on record as “stronger inhibition of vasculogenic mimicry than unconjugated free drugs; also recorded: stronger inhibition of 3Dtubulare structures than Docetaxel alone”. Besides, the “IC50 values for vasculogenic mimicry inhibition” value in series [6] (Example 2, ovarian cancer and TNBC cells) is “low nM to pM”. In series [7], the cell migration result was “inhibited”. In addition, the neutrophils count entry in [8] (after six injections) is “remained within normal limits”. Further, the “effect on blood cells (lymphocytes, platelets, neutrophils)” value in series [8] (nude mice, 3 treatments) is “absence of effect”. For the same compound, the “cell death induction compared to free Docetaxel” value with MDA-MB-231 cells [9] is “faster and higher cell death mechanisms”.

For the compound `CC(=O)O[C@@]12CO[C@@H]1C[C@H](O)[C@@]1(C)C(=O)[C@H](O)C3=C(C)[C@@H](OC(=O)[C@H](O)[C@@H](NC(=O)OC(C)(C)C)c4ccccc4)C[C@@](O)([C@@H](OC(=O)c4ccccc4)[C@H]21)C3(C)C` [Docetaxel, docetaxel], the IC50 in series [10] turned out to be 0.68 nM. Besides, the neutrophils count entry in series [8] (four days after a single injection at the maximum tolerable dose) was “drastic reduction in neutrophils count”. Moreover, in series [11] (Docetaxel 10 mg/kg, mice), the CL is 35 mL/min/kg, the Vd was 2.2 to 5 L/kg, the t½ adsorption distribution is recorded as 7 min and the t½ elimination was 72 min. Further, the “Reported Cmax” value in [11] (Docetaxel dosed at 20 mg/kg) is recorded as “about 20 μg/ml”. Moreover, the Cmax in [11] (Docetaxel dosed at 20 mg/kg, read-out: Reported Cmax) was ~25 µM.
